Measured values taken from US20230390276A1, “TREATMENT OF AUTOIMMUNE DISEASES WITH A DIHYDROOROTATE HEHYDROGENASE (DHODH) INHIBITOR” (Aslan Pharmaceuticals Pte. Ltd., priority 2020, published 2023).

Columns and labels:
[1] = Haematological cell count in EAE rats; type: in vivo, Male Lewis rats; conditions: for number of neutrophils: 24 hours after last administration, no statistically significant difference versus vehicle
Procedure: At the end of the assay, 24 h after last administration, blood samples from the retro-orbital plexus were obtained from all animals under light anaesthesia. Samples were used to determine complete blood cell count (XT-2000i/XT-1800i, Sysmex Corporation). Absolute values were reported for all cell types.

[2] = test system: EAE Lewis rat model; assay: Histology of the CNS in EAE rats; type: in vivo, Male Lewis rats; conditions: highest doses tested; compared to vehicle-treated animals
Procedure: At the end of the experiment, animals were killed by exsanguination and necropsies were performed in a blind manner. The spinal cords (CNS; spinal cord, medulla oblonga, cerebellum) of EAE animals were obtained, fixed in 4% formalin in PBS, and embedded in paraffin. Six μm-thickness sections were prepared and then stained with hematoxylin and eosin. The histological score was evaluated as follows: • 0: no lesions; • 1: solitary lesions with cell infiltrates of low cellular density in the entire section; • 2: a few lesions with moderate cell infiltration in each of a few fields; • 3: many lesions in almost all fields with massive cell infiltration and accompanying edema (Kataoka, 2005).

[3] = test system: rheumatoid arthritis (RA) Adjuvant-Induced Arthritis (AIA) model; assay: Adjuvant-induced arthritis (AIA) model, paw inflammation AUC; type: in vivo, Male Wistar rats; conditions: for % Inhibition of the AUC (mean ± SEM): vs mean of vehicle
[4] = test system: multiple sclerosis experimental autoimmune encephalomyelitis (EAE) model; assay: EAE model of multiple sclerosis, clinical score (Example 1); type: in vivo; conditions: oral 1, 3, 10 or 15 mg/kg per day from Day 8 after disease induction
Text: Experimental autoimmune encephalomyelitis (EAE) is a well-studied animal model of demyelinating diseases, such as human multiple sclerosis (MS). EAE is induced by injecting susceptible animals with purified myelin components, central nervous system (CNS) extract, or synthesized specific peptides emulsified in an adjuvant. The peptides are for example derived from myelin basic protein (MBP), myelin oligodendrocyte glycoprotein (MOG) or proteolipid protein (PLP). To investigate the effect of ASLAN003 on multiple sclerosis, ASLAN003 was administered orally to the EAE model at doses of 1 mg/kg, 3 mg/kg, 10 mg/kg or 15 mg/kg per day, starting from Day 8 after disease induction. A vehicle control was included.

[5] = test system: rheumatoid arthritis (RA) Adjuvant-Induced Arthritis (AIA) model; assay: X-ray (radiological) score of paws in AIA model; type: in vivo, Male Wistar rats; conditions: 3 mg/kg; 2 to 3 independent experiments
Procedure: Rats were administered the CFA suspension every day in the morning for 10 consecutive days. Body weight was measured every day and paw volumes every other day. On day 11 post-treatment (24 hrs after last administration), the rats were anesthetised, blood samples were collected from their retroorbital plexus to determine cell counts, and then sacrificed. Hind paws were excised to perform X-ray analysis and a score of radiological damage was performed by a scientist unaware in a blind manner. The radiological score is a composite of 5 different parameters evaluated from the X-ray images of every individual paw. The 5 parameters are: bone demineralisation, periostitis, narrowing of the joint space, cystic degeneration, and inflammation of the soft tissues. For each parameter, a value of 0-4 was assigned, which is proportional to the severity observed. The sum of the scores of the 5 parameters provides the radiological score for each animal. The effect of a treatment on the inhibition of the radiological score was measured by calculating the % inhibition of the radiological score of every animal belonging to a treatment group vs the mean of the vehicle treated group. In the case where several experiments were conducted, the values provided are the mean of the individual experiments and the SEM.

[6] = test system: EAE Lewis rat model; assay: EAE Lewis rat model, clinical score AUC (Example 2); type: in vivo, Male Lewis rats
Procedure: For the induction of EAE, guinea pig myelin basic protein (MBP) (Sigma, M2295) suspended in 0.9% saline solution at a concentration of 2 mg/ml was used. The solution was emulsified with an equal volume of Freund's complete adjuvant (Sigma, F5881) containing 4 mg/ml of heat-inactivated Mycobacterium tuberculosis H37Ra (Difeo Laboratories, Ref. 231141). Male Lewis rats were immunized with 0.1 ml of emulsion by subcutaneous injection into the right and left hind footpads with the emulsion containing MBP at 100 μg/rat.
Individual animals were examined daily for clinical signs of neurological deficits scored on a 0 to 5 scale, as follows:
Clinical signs of the disease were observed on day 8-9 after induction.
As disease progressed, animals with a score of 4 were sacrificed if disability indicated little chance of recovery, in accordance with animal welfare standards. Mortality due to sacrifice or spontaneous EAE-related death was recorded as a 5 on the given day. This death score continued to be included in the clinical assessment, but no body weight measurements could be carried forward.
LAS 186323 (ASLAN003), positive control T and positive control F were freshly prepared every day and suspended in 0.5% Methylcellulose and 0.1% Tween 80 in water, at the specified doses and administered by oral gavage in a volume of 10 ml/kg.
Evaluation of disability was performed on a daily basis and a clinical score given to each animal, as described. The area under the curve (AUC) of the clinical score was generated for each animal from the data recorded along the experiment. The percentage of inhibition of the AUC was calculated for every animal versus the mean of the AUC of the vehicle group. The mean percentage of inhibition per treatment and dose was calculated.

[7] = test system: DSS induced IBD model; assay: Dextran sulfate sodium (DSS) induced inflammatory bowel disease (IBD) mouse model; type: in vivo, Male C57BL/6 mice
Procedure: Male C57BL/6 mice aged 6-7 weeks were procured from Shanghai Lingchang Bio Tech Co. Ltd, China. Animals were randomized into groups based on the body weight: • Group 01: Purified water, ad libitum, Day 1-8; Vehicle, 5 mL/kg, P0, QD, Day 0-9, n=6 • Group 02: 3% DSS in water, ad libitum, Day 1-8; Vehicle, 5 mL/kg, P0, QD, Day 0-9, n=8 • Group 03: 3% DSS in water, ad libitum, Day 1-8; positive control V, 20 mg/kg, P0, QD, Day 0-9, n=8 • Group 04: 3% DSS in water, ad libitum, Day 1-8; ASLAN003, low dose, P0, QD, Day 0-9, n=8a • Group 05: 3% DSS in water, ad libitum, Day 1-8; ASLAN003, high dose, P0, QD, Day 0-9, n=8 • Abbreviations: QD=Once daily; PO=Oral gavage. • Study duration: 3 weeks of acclimation phase, and 10 days of treatment phase starting from Day 0 (Day 0-10). • Colitis model induction: To induce acute experimental colitis, mice in Groups 02-05 were provided ad libitum access to 3% DSS in purified water for 7 days (Day 1-7), followed by purified water for 2 days (Day 9-10). The drinking water containing DSS was changed once in two days. Mice in Group 01 was kept on purified water as a control, during Day 1-7. • In-life parameters measured: • Water and food consumption was monitored once daily during Day 0-10. • Body weight was measured once daily during Day 0-10, with twice daily clinical monitoring. • Stool observation as conducted once daily during Day 0-10. A disease activity index (DAI) was determined to quantify induction of colitis. • Intestinal permeability was assessed on Days 0 and 9. • Faeces was collected for lipocalin-2 detection on Days 0, 4, 8 and 10. • Study Termination: The mice were sacrificed on Day 10, and the following was performed on the sacrificed animals: • The entire colon (from caecum to anus) was collected and its length from ileocecal valve to anus was measured. • One photo of the entire colon for each mouse was taken. • The colon was opened along the mesenteric border, rinsed with saline, blotted dry and its weight was measured. • The colon was processed as ‘spiral Swiss Rolls’, fixed in 10% neutral-buffered formalin for 24-48 hours, and embedded in paraffin (one block per mouse) for hematoxylin-eosin (H&E) staining and histopathological evaluation. • The spleen was dissected, its tissue weight measured and recorded, and then discarded.

[8] = WBC and platelet counts in AIA model; type: in vivo, Male Wistar rats; conditions: arthritic rats, 24 hrs after last administration
Procedure: Rats were administered the CFA suspension every day in the morning for 10 consecutive days. Body weight was measured every day and paw volumes every other day. On day 11 post-treatment (24 hrs after last administration), the rats were anesthetised, blood samples were collected from their retroorbital plexus to determine cell counts, and then sacrificed. Hind paws were excised to perform X-ray analysis and a score of radiological damage was performed by a scientist unaware in a blind manner.

## COc1cccc(-c2cc(F)c(Nc3ncccc3C(=O)O)c(F)c2)c1 [ASLAN003, 2-(3,5-difluoro-3′-methoxybiphenyl-4-ylamino) nicotinic acid]
[1]; 10 mg/kg
  number of neutrophils: not at 10 mg/kg
[1]; 3 and 15 mg/kg
  number of neutrophils: reduction in the number of neutrophils
[1]; once a day oral, 1-15 mg/kg
  blood cell count: did not have a significant effect
[2]
  CNS histological score (microscopic CNS lesions): profound improvement in the microscopic CNS lesions
[3]; 1 mg/kg oral daily, 2 to 5 independent experiments
  AUC of right paw inflammation (mean ± SEM): 9.11 ± 3.14
[3]; 1 mg/kg oral daily
  % Inhibition of the AUC (mean ± SEM): 32.76 ± 22.8%
[3]; 3 mg/kg oral daily
  % Inhibition of the AUC (mean ± SEM): 53.09 ± 2.4%
[3]; 10 mg/kg oral daily
  % Inhibition of the AUC (mean ± SEM): 64.49 ± 4.6%
[3]; Rattus norvegicus, from 2 to 5 independent experiments, read-out: ED50 (mean % reduction in paw volume)
  ED50: 4.6 mg/kg
[4]
  clinical score compared to the vehicle control: significantly reduced clinical score
[5]
  X-ray score (mean ± SEM): 2.16 ± 0.25
[6]; 1 mg/kg oral daily
  % AUC inhibition Mean (SEM) of clinical score: 41.1 (13.34) %
[6]; 3 mg/kg oral daily
  % AUC inhibition Mean (SEM) of clinical score: 44.4 (10.79) %
[6]; 10 mg/kg oral daily
  % AUC inhibition Mean (SEM) of clinical score: 65.1 (9.02) %
[6]; 15 mg/kg oral daily
  % AUC inhibition Mean (SEM) of clinical score: 84.4 (4.94) %
[6]; calculated by linear regression
  ED50 (clinical score AUC inhibition): 2.7 mg/kg/day
[7]; 75 mg/kg PO QD (group 5), Days 2 to 9
  stool consistency: best overall stool consistency
[7]; 75 mg/kg PO QD (group 5), end of study
  spleen weight: most similar to the control group 1
[7]; 75 mg/kg PO QD (group 5), over the 10 days
  Disease Activity Index (DAI): lower overall increase in DAI
[7]; 75 mg/kg PO QD (group 5), over the course of the study
  bloody stools: lowest incidence of bloody stools
[7]; 25 and 75 mg/kg PO QD (groups 4 and 5), end of study, vs Vehicle group 2
  colon weight/length: fairly similar
[7]; 25 and 75 mg/kg PO QD (groups 4 and 5), vs vehicle treated group 2
  lipocalin in faeces (intestinal inflammation): less intestinal inflammation
[7]; 25 and 75 mg/kg PO QD Day 0-9 (groups 4 and 5), vs DSS induced vehicle group 2
  loss in body weight: similar
[8]; 1 mg/kg
  Platelets: 1418 ± 180 ×10^3/μl
  White blood cells: 20.6 ± 0 ×10^3/μl
[8]; 3 mg/kg
  Platelets: 1180 ± 45.9 ×10^3/μl
  White blood cells: 16.2 ± 0.86 ×10^3/μl
